In patent US10703737B2, “HDAC inhibitors and uses thereof” (MUSC FOUNDATION FOR RESEARCH DEVELOPMENT, priority 2018, dated 2020):

Key:
HDAC1 = HDAC1 (Homo sapiens, UniProt Q13547); test: HDAC1 inhibition IC50; assay type: biochemical
HDAC3 = HDAC3 (Homo sapiens, UniProt O15379); test: HDAC3 inhibition IC50; assay type: biochemical
HDAC2 = HDAC2 (Homo sapiens, UniProt Q92769); test: HDAC2 inhibition IC50; assay type: biochemical
SDHA = test: Mass spectrometry of protein acetyl-lysine in I/R hearts treated at reperfusion; design: species or system rat; settings: for change in SDHA acetylation: I/R hearts, treated at reperfusion, preliminary MS data; for acetylation of SDHA K480: IR with drug treatment
Method: (§1) N=3 per group. (B) Treatment of Langendorff hearts with HDAC inhibitors reduce succinate dehydrogenase activity. SDH activity was measured in tissue lysates from reperfused hearts treated with either MS275 or LL-66 at reperfusion. N=4 per group. (C) SDHA activity was measured in mitochondria isolated from HEK2.93 cells expressing WT, K480Q or K480R mutants. N=4
Samples from I/R hearts treated with LL-66, LL-224, MS-275 and vehicle at reperfusion were prepared for mass spectrometry to detect changes in protein acetyl-lysine. […] The inventors previously proposed to first focus on the lysine corresponding to mouse SDHA K538. […] SDH is unique in that it is the only enzyme that participates both in the Krebs cycle and oxidative phosphorylation in mitochondria. Thirteen acetyl-lysine's have been identified on SDHA but there is no acetylation of SDHB^11*, and SDHA is hyper-acetylated in the Sirt3 knockout mouse. […] HEK293 lowers SDH basal activity^13*, SDH K179 is a target of Sirt3.
(§2) Therefore, since inhibition of the mitochondrial HDAC1 represses SDH activity and. K538 is hyperacetylated in IR when HDAC1 is inhibited, the inventors first proposed to test whether K538 acetylation represses SDH activity. The inventors have made and expressed the mouse WT, K538Q and K538R point mutants of SDHA in HEK293 cells to determine if acetylation of K538 also represses SDH activity. Contrary to what the inventors had hoped the K538Q and K538R SDHA mutants had no difference in SDHA activity from WT SDHA after normalization for expression (data not shown). […] The K480R has WT activity and K.480Q has suppressed SDHA activity (FIG. 5C) when expressed in HEK293 cells.

Langendorff hearts = test: Oxyblotting of lysates from Langendorff hearts subjected to I/R; design: species or system rat; settings: I/R hearts +/- drug
Method: (§3) FCCP was injected at point A and […] injected at point B. (B) Measurements of OCR in isolated myocytes subjected to normoxia (blue) or chemical hypoxia. reoxygenation (red) and reperfused with DMSO (red), MS-275 (pink), or LL-66 (peach). For (A) and (B), top panels are representative, bottom panels are the uncoupled rate as a percentage of baseline rate over 4 runs. (C) Oxyblotting of tissue homogenates from Langendorff hearts subjected to I/R+/−LL-66 or MS-275. Representative seahorse data are represented mean +/−SEM, Bar graphs are represented mean +/−S.D. For all experiments, N-4, one way ANOVA with Dunnet post test *p<0.05, **p<0.01.
Since acetylation is known to regulate the activity of mitochondrial enzymes involved in multiple metabolic pathways, the inventors decided to determine if class I HDAC inhibition affects metabolic activity in cardiac myocytes both at baseline and when subjected to simulated hypoxia-reoxygenation (sI/R). […] At the conclusion of the reperfusion period, myocytes were loaded into a Seahorse extracellular flux analyzer and the oxygen consumption rate (OCR) was analyzed at baseline and in response to FCCP (injection A) and […] (injection B).

[1] = tested on: hearts from Sprague-Dawley rats; test: Langendorff isolated heart ischemia-reperfusion model, drug at reperfusion (ex vivo); settings: drug during reperfusion; for left ventricular function (dP/dtmax, dP/dtmin, developed pressure, rate pressure product): 30 min ischemia, 60 min reperfusion, vs drug-free control; for infarct area / viable myocardium (TTC staining): end of 60 min reperfusion
Method: (B) Graphs represent measurements of left ventricular function after 30 minutes of ischemia and 60 minutes of reperfusion. dP/dtmax indicates the rate of pressure development, dP/dtmin indicates the rate of pressure relaxation, Developed Pressure was calculated as the difference between the systolic and diastolic pressures, Rate Pressure Product was calculated as the developed pressure multiplied by the heart rate. Measurements were taken at the end of reperfusion. (C) TTC staining for infarct area at the end of reperfusion; yellow/white region indicates area of infarction. Infarct areas were measured using imageJ software. All data are represented as mean+/−S.D. N=4, t-test *p,0.05.
FIG. 3 provides data showing (A) Confocal fluorescent images of myocytes loaded with LL-66 and Mitotracker Deep Red FM. (B) LV functional measurements taken at the end of 30 minutes ischemia and 60 minutes of reperfusion, represented as a percentage of baseline pre-ischemia function. dP/dtmax indicates the rate of pressure development, dP/dtmin indicates the rate of pressure relaxation, Developed Pressure was calculated as the difference between the systolic and diastolic pressures, Rate Pressure Product was calculated as the developed pressure multiplied by the heart rate. Measurements were taken at the end of reperfusion. (C) TTC staining for infarct at the end of reperfusion; yellow/white region indicates area of infarction. Infarct areas were measured using image) software. (D) Area of Infarction for each of the groups in (C). N=3 for (A), For B-D, All data are represented as mean+/−S.D. N=4 t-test for panel B, one way ANOVA with bonferroni post-test for panel D *p<0.05.
To test whether selective class I HDAC inhibition can postcondition the heart against […], the inventors isolated hearts from Sprague-Dawley rats and perfused them using a constant pressure Langendorff apparatus. After 15 minutes of equilibration, the inventors subjected the hearts to 30 minutes of ischemia, followed by 60 minutes of reperfusion. The selective class I HDAC inhibitor MS-275 was administered throughout the reperfusion phase and compared to drug-free control hearts (FIG. 1A). In order to measure left ventricular functional performance, a saline-filled balloon was inserted into the left ventricle and attached to a pressure transducer. […] At the conclusion of the 60 minute reperfusion period, hearts were removed from the perfusion column and sliced into 2 mm transverse sections using a tissue slicing matrix. Hearts were then incubated in 2,3,5-triphenyltetrazolium chloride ([…]) in order to determine the amount of infarcted myocardium. […]

[2] = tested on: isolated adult rat cardiac myocytes; test: Seahorse oxygen consumption rate (OCR) in myocytes, normoxia or simulated hypoxia-reoxygenation; assay type: cell-based
Method: as §3
Since acetylation is known to regulate the activity of mitochondrial enzymes involved in multiple metabolic pathways, the inventors decided to determine if class I HDAC inhibition affects metabolic activity in cardiac myocytes both at baseline and when subjected to simulated hypoxia-reoxygenation (sI/R). For these experiments, isolated adult rat cardiac myocytes were subjected to chemical hypoxia or normoxia control for 90 minutes, then reperfused in the presence of DMSO vehicle, MS-275, or LL-66 for 60 minutes. At the conclusion of the reperfusion period, myocytes were loaded into a Seahorse extracellular flux analyzer and the oxygen consumption rate (OCR) was analyzed at baseline and in response to FCCP (injection A) and […] (injection B).

succinate dehydrogenase = test: SDH activity in tissue lysates from reperfused Langendorff hearts; design: species or system rat; settings: Langendorff hearts treated at reperfusion
Method: as §1, §2

[3] = at baseline (normoxia), FCCP-uncoupled
[4] = following sI/R (90 min chemical hypoxia, 60 min reperfusion with drug)

Chain of HDAC1 (Q13547 whole entry, species assumed): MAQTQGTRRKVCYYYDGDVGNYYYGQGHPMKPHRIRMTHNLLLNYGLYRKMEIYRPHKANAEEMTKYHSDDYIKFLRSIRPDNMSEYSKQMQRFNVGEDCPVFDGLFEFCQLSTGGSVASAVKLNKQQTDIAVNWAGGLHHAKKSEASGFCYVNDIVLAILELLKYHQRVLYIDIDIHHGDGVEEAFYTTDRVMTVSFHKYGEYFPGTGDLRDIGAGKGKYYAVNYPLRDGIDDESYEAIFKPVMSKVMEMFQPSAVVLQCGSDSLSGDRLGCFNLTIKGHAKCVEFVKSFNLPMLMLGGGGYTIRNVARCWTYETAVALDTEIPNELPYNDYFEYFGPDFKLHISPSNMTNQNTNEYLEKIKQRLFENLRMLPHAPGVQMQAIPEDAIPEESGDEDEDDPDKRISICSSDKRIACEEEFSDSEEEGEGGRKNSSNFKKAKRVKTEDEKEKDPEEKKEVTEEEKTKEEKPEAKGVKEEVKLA
Chain of HDAC3 (O15379 whole entry, species assumed): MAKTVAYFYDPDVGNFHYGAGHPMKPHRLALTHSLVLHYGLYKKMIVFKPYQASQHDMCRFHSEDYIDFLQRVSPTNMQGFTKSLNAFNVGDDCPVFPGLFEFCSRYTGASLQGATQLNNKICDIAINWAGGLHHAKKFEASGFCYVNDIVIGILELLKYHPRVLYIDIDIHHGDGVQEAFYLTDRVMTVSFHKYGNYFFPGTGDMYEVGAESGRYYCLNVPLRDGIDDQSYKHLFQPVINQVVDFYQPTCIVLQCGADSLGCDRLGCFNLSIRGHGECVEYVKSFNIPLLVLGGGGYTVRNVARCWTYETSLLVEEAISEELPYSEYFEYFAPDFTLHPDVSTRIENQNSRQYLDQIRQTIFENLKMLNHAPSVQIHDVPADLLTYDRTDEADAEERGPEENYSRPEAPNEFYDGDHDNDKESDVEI
Chain of HDAC3 (Q9Y618 395-489 partner limits assumed, species assumed): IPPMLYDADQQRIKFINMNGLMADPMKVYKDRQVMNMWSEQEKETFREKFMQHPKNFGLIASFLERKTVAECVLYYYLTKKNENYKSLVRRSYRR
Chain of HDAC2 (Q92769 whole entry, species assumed, the tested form may be a part): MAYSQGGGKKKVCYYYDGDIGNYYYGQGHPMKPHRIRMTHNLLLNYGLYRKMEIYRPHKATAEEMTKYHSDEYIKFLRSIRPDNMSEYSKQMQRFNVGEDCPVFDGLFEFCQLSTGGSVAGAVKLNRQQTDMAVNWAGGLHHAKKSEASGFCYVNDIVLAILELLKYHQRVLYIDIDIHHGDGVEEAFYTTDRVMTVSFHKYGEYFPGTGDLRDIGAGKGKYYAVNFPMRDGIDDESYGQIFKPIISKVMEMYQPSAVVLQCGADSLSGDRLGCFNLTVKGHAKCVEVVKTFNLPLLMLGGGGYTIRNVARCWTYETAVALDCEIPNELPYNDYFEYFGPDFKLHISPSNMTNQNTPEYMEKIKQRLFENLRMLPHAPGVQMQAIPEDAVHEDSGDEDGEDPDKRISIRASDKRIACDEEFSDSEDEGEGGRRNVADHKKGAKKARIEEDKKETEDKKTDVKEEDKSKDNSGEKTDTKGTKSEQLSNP

Question: Which IC50 (HDAC1) does the source give for `N=c1ccc2c(-c3ccccc3C(=O)NCCCCCC(=O)Nc3ccccc3N)c3ccc(N)cc3oc-2c1` [LL38, 2-(6-(2-(6-amino-3-iminio-3H-xanthen-9-yl)benzamido)hexanamido) benzenaminium 2,2,2-trifluoroacetate] here?
Answer: 1260 nM

Question: And the IC50 (HDAC3)?
Answer: 180 nM

Question: And the IC50 (HDAC2)?
Answer: 490 nM

Question: With `N=c1ccc2c(-c3ccccc3C(=O)NCCCCCCC(=O)Nc3ccccc3N)c3ccc(N)cc3oc-2c1` [LL45, 2-(7-(2-(6-amino-3iminio-3H-xanthen-9-yl)benzamido)heptanamido) benzenaminium 2,2,2-trifluoroacetate] as the compound, how does the IC50 (HDAC1) read?
Answer: 1950 nM

Question: And the IC50 (HDAC3)?
Answer: 55 nM

Question: And the IC50 (HDAC2)?
Answer: 2460 nM

Question: `CCCNNC(=O)c1ccc(CNC(=O)c2ccccc2-c2c3ccc(=N)cc-3oc3cc(N)ccc23)cc1` [LL65, 6-amino-9-(2-((4-(2-propylhydrazine-1-carbonyl)benzyl)carbamoyl)phenyl)-3H-xanthen-3-iminium 2,2,2-trifluoroacetate] was tested. Which IC50 (HDAC1) did it give?
Answer: 276 nM

Question: And the IC50 (HDAC3)?
Answer: 36 nM

Question: What about the IC50 (HDAC2) of the same compound?
Answer: 849 nM

Question: For `N=c1ccc2c(-c3ccccc3C(=O)NCc3ccc(C(=O)Nc4ccccc4N)cc3)c3ccc(N)cc3oc-2c1` [LL66, 2-(4-((2-(6-amino-3-iminio-3H-xanthen-9-yl)benzamido)methyl)benzamido) benzenaminium 2,2,2-trifluoroacetate], which “change in SDHA acetylation” value (SDHA) is on record?
Answer: significant changes in acetylation

Question: And the “acetylation of SDHA K480” value (SDHA)?
Answer: significantly hyperacetylated

Question: And the “acetylation of lysine corresponding to mouse SDHA K538” value (SDHA; IR with drug vs IR with vehicle)?
Answer: significantly hyperacetylated

Question: And the IC50 (HDAC1)?
Answer: 4020 nM

Question: What about the “oxidative damage (oxyblotting)” value (Langendorff hearts) of the same compound?
Answer: reduction of oxidative damage

Question: What about the “left ventricular function (dP/dtmax, dP/dtmin, developed pressure, rate pressure product)” value [1] of the same compound?
Answer: same magnitude of LV functional recovery from injury as the non-targeted class I HDAC inhibitor MS-275

Question: What about the “infarct area / viable myocardium (TTC staining)” value [1] of the same compound?
Answer: rescued viable myocardium to the same extent as MS-275

Question: And the IC50 (HDAC3)?
Answer: 355 nM

Question: What about the “maximal uncoupled OCR” value [2, 3] of the same compound?
Answer: significantly decreased

Question: What about the “maximal uncoupled OCR” value [2, 4] of the same compound?
Answer: significantly decreased

Question: And the IC50 (HDAC2)?
Answer: 3480 nM

Question: What about the SDH activity (succinate dehydrogenase) of the same compound?
Answer: significantly reduced

Question: For `CCCNNC(=O)c1ccc(CNC(=O)CNC(=O)c2ccccc2-c2c3ccc(=N)cc-3oc3cc(N)ccc23)cc1` [LL115, 6-amino-9-(2-((2-oxo-2-((4-(2-propylhydrazine-1-carbonyl)benzyl)amino)ethyl)carbamoyl)phenyl)-3H-xanthen-3-iminium 2,2,2-trifluoroacetate], which IC50 (HDAC1) is on record?
Answer: 41 nM

Question: And the IC50 (HDAC3)?
Answer: 5 nM

Question: What about the IC50 (HDAC2) of the same compound?
Answer: 209 nM

Question: Which results are given for `N=c1ccc2c(-c3ccccc3C(=O)NCCCCCCCC(=O)Nc3ccccc3N)c3ccc(N)cc3oc-2c1` [LL130, 2-(8-(2-(6-amino-3-iminio-3H-xanthen-9-yl)benzamido)octanamido) benzenaminium 2,2,2-trifluoroacetate]?
Answer: IC50 (HDAC1): 4730 nM; IC50 (HDAC3): 152 nM; IC50 (HDAC2): 5170 nM

Question: How did the IC50 (HDAC1) turn out when `CCCNNC(=O)CCCCCCNC(=O)c1ccccc1-c1c2ccc(=N)cc-2oc2cc(N)ccc12` [LL142, 6-amino-9-(2-((7-oxo-7-(2-propylhydrazinyl)heptyl)carbamoyl)phenyl)-3H-xanthen-3-iminium 2,2,2-trifluoroacetate] was run?
Answer: 111 nM

Question: And the IC50 (HDAC3)?
Answer: 6 nM

Question: What about the IC50 (HDAC2) of the same compound?
Answer: 460 nM

Question: What does the source list for `CCCNNC(=O)c1ccc(NC(=O)CNC(=O)c2ccccc2-c2c3ccc(=N)cc-3oc3cc(N)ccc23)cc1` [LL162, 6-amino-9-(2-((2-oxo-2-((4-(2-propylhydrazine-1-carbonyl)phenyl)amino)ethyl)carbamoyl)phenyl)-3H-xanthen-3-iminium 2,2,2-trifluoroacetate]?
Answer: IC50 (HDAC1): 124 nM; IC50 (HDAC3): 7 nM; IC50 (HDAC2): 468 nM

Question: What does the source list for `Nc1ccccc1NC(=O)c1ccc(CNC(=O)OCc2cccnc2)cc1` [MS-275, reference compound]?
Answer: change in SDHA acetylation (SDHA): significant changes in acetylation; change in acetylation of rat SDHA lysine corresponding to mouse K179 (SDHA; IR vs IR+drug): not significant; acetylation of SDHA K480 (SDHA): significantly hyperacetylated; oxidative damage (oxyblotting) (Langendorff hearts): reduction of oxidative damage; left ventricular function (dP/dtmax, dP/dtmin, developed pressure, rate pressure product) [1]: significant preservation of multiple parameters of ventricular function; infarct area / viable myocardium (TTC staining) [1]: significantly reduced infarct area; maximal uncoupled OCR [2, 3]: significantly decreased; maximal uncoupled OCR [2, 4]: significantly decreased; SDH activity (succinate dehydrogenase): significantly reduced
